Assay: Ex vivo permeation across excised rat small intestine (non-everted intestinal sac)
Assay type: in vitro ADME, male Wistar rats
Details: compound filled into the sac, 5 mg/Kg in PBS + methocel 3%, 37 °C, 2 h; for Fraction Absorbed (Fa) ± SE, Duodenum: rat duodenum; for Fraction Absorbed (Fa) ± SE, Ileum: rat ileum; for Fraction Absorbed (Fa) ± SE, Jejunum: rat jejunum
Protocol: The permeability of the galactosylated prodrugs and the parent drugs through the rat small intestine was assessed ex vivo using the non-everted intestinal sac method. Despite some shortcomings (e.g., the interruption of normal blood flow, lack of a nervous system) this test is widely used to investigate the passive absorption of molecules and can provide further data when equipped with a mucus layer, which includes proteins of drug transport and metabolism.
A suspension of the tested compounds (5 mg/Kg in PBS + methocel 3%) was syringed into intestinal sacs that consisted of different segments of rat small intestine (duodenum, jejunum, ileum). The compound-enriched tissues were incubated at 37 °C for 2 h.
In order to verify the presence of the galactosylated compounds in the intestinal tissues, the intestinal sacs were opened at the end of the incubation period, washed with fresh buffer and homogenized in ethanol and the supernatant was dried. The concentrations of the galactosylated prodrugs and the prodrug-derived parent drugs were quantified using RP-HPLC (Figure 3a–d).
An evaluation of ex vivo absorption was carried out using permeation measurements in excised rat small intestines, as previously published, with some modifications. Briefly, male Wistar rats (200–250 g) were anesthetized with isoflurane, decapitated and exsanguinated. Freshly excised rat duodenum, jejunum and ileum tissue was washed with Krebs–Ringer buffer (KRB) and cut into pieces of 4–5 cm. Then, 0.2 mL of a suspension containing the compounds (5 mg/Kg, PBS + Methocel 3%) were syringed into intestinal sacs and the compound-enriched tissues were incubated in oxygenated KRB (10 mL) at 37 °C with smooth shaking. […] Tests were carried out in triplicate for each compound on three intestinal segments from three different rats. The concentration in the incubation buffer was quantified via RP-HPLC, as reported above.
At the end of the incubation period, the intestinal sacs were opened, washed with fresh buffer, homogenized in ethanol (1 mL, UltraTurrax) and centrifuged at 13,000× g for 5 min and the supernatant was dried with nitrogen. After resolubilization in 0.5 mL of methanol, the concentrations of the galactosylated prodrugs and prodrug-derived parent drugs were quantified using RP-HPLC.

Row | SMILES | Fraction Absorbed (Fa) ± SE, Duodenum | Fraction Absorbed (Fa) ± SE, Ileum | Fraction Absorbed (Fa) ± SE, Jejunum
1 | CC(C)Cc1ccc(C(C)C(=O)OC[C@H]2OC(O)[C@H](O)[C@@H](O)[C@H]2O)cc1 (stereo partly drawn) [IbuGAL] | 0.013 ± 0.006 | 0.031 ± 0.016 | 0.026 ± 0.014
2 | CC(C(=O)OC[C@H]1OC(O)[C@H](O)[C@@H](O)[C@H]1O)c1ccc(-c2ccccc2)c(F)c1 (stereo partly drawn) [FluGAL] | 0.060 ± 0.014 | 0.033 ± 0.008 | 0.031 ± 0.015
